{"source": "patent US20210324359A1", "about": "“USE OF GRAM-NEGATIVE LYSIN-ANTIMICROBIAL PEPTIDE (AMP) POLYPEPTIDE CONSTRUCTS IN TREATING ENDOCARDITIS” (priority 2020, published 2021)", "molecules": {"B1": {"name": "GN121: variant lysin (SEQ ID NO: 175), also disclosed in WO 2019/118632 (protein)", "chain": "MTYTLSKRSLDNLKGVHPDLVAVVHRAIQLTPVDFAVIEGLRSVSRQKELVAAGASKTMNSRHLTGHAVDLAAYVNGIRWDWPLYDAIAVAVKAAAKELGVAIVWGGDWTTFKDGPHFELDRSKYRRKKTRKRLKKIGKVLKWI"}}, "key": {"[1]": {"test_system": "P. aeruginosa PA20 recovered from rabbit lung homogenates", "assay_type": "cell-based, Pseudomonas aeruginosa", "details": "n=48"}, "[2]": {"test_system": "P. aeruginosa (PA20)", "assay": "Rabbit infective endocarditis model (Tables 28-32, FIGS. 5-8)", "assay_type": "in vivo, Pseudomonas aeruginosa in rabbits", "details": "Meropenem 5 mg/kg", "method": "Initially, a polyethylene catheter was placed into the rabbits' right ventricle and secured. 48 hours after catheter placement, rabbits were infected intravenously with P. aeruginosa (PA20) (6×10^9 CFU/mL). Treatment commenced 24 hours post-infection.\nData were analyzed using the Kruskal-Wallis method for multiple comparison and then adjusted with a false discovery rate approach (Benjamini-Hochberg method), using StatsDirect Software. A p-value of <0.05 was considered statistically significant."}, "[3]": {"test_system": "P. aeruginosa PA20", "assay": "MIC of GN370 and meropenem against the infecting strain", "assay_type": "cell-based, Pseudomonas aeruginosa", "details": "Pseudomonas aeruginosa"}, "[4]": {"test_system": "Pseudomonas aeruginosa strain CFS-1292 (meropenem resistant)", "details": "strain CFS-1292; no added cations", "method": "The activity of selected GN lysins and constructs in the presence of divalent cations was evaluated, and the impact of divalent cations at physiological concentrations was examined in the MIC assay format."}, "[5]": {"test_system": "P. aeruginosa strain WC-453", "assay": "Time-kill assay in HEPES or CAA with 25% human serum (Tables 7, 8)", "assay_type": "cell-based, Pseudomonas aeruginosa", "method": "Exponential phase bacteria were then pelleted and resuspended in 1/5 culture volume of 25 mM HEPES, pH 7.4 before a final adjustment to an optical density corresponding to a McFarland value of 0.5. […] All treatments were incubated at 37° C. with aeration. At time points before the addition of lysin (or buffer control) and at 1 hour and 3 hours intervals thereafter, culture samples were removed for quantitative plating on CAA agar plates."}, "[6]": {"test_system": "outer membrane of P. aeruginosa (CFS 1292)", "assay": "N-phenyl-1-napthylamine (NPN) uptake assay, outer membrane destabilization (Table 15)", "assay_type": "cell-based, Pseudomonas aeruginosa", "details": "NPN fluorescence, buffer = 100, lysin 100 μg/well", "method": "The ability of gram-negative lysins to destabilize the outer membrane of P. aeruginosa was evaluated through the use of an N-phenyl-1-napthylamine (NPN) uptake assay. […] NPN was added to a final concentration of […]. […] Changes in fluorescence were recorded (excitation 1=350 nm; emission 1=420 nm) over two hours."}, "[7]": {"test_system": "Pseudomonas aeruginosa strain CFS-1292 (meropenem resistant)", "assay": "MIC in 25% CAA alone, with […] human serum or […] SURVANTA (Table 13)", "assay_type": "cell-based", "method": "Materials and methods: MICs were determined by broth microdilution in media supplemented with human serum and pulmonary surfactant ([…]®; Myoderm Clinical Supplies). Minimal biofilm eradicating concentrations (MBECs) were determined using standard methods. […] Fluorescence microscopy was performed after LIVE/DEAD staining (ThermoFisher) and TEM was performed."}}, "note": "Like-named read-outs stand apart in the source and are kept apart here.", "data": [{"molecule": "C[C@@H](O)[C@H]1C(=O)N2C(C(=O)O)=C(S[C@@H]3CN[C@H](C(=O)N(C)C)C3)[C@H](C)[C@H]12", "note": "[Meropenem, meropenem, reference compound]", "values": [{"measurement": "number of isolates with Meropenem MIC […] μg/mL", "setting": "[1]; isolates from GN370 (3 mg/kg) + Meropenem (20 mg/kg) group", "result": 48}, {"measurement": "number of isolates with Meropenem MIC […] μg/mL", "setting": "[1]; isolates from GN370 (3 mg/kg) group", "result": 48}, {"measurement": "number of isolates with Meropenem MIC […] μg/mL", "setting": "[1]; isolates from GN370 (10 mg/kg) + Meropenem (20 mg/kg) group", "result": 48}, {"measurement": "number of isolates with Meropenem MIC […] μg/mL", "setting": "[1]; isolates from GN370 (10 mg/kg) group", "result": 48}, {"measurement": "number of isolates with Meropenem MIC […] μg/mL", "setting": "[1]; isolates from GN370 (30 mg/kg) + Meropenem (20 mg/kg) group", "result": 48}, {"measurement": "number of isolates with Meropenem MIC […] μg/mL", "setting": "[1]; isolates from GN370 (30 mg/kg) group", "result": 48}, {"measurement": "number of isolates with Meropenem MIC […] μg/mL", "setting": "[1]; isolates from Meropenem (20 mg/kg) group", "result": 48}, {"measurement": "number of isolates with Meropenem MIC […] μg/mL", "setting": "[1]; isolates from Pre-treatment control group", "result": 48}, {"measurement": "number of isolates with Meropenem MIC […] μg/mL", "setting": "[1]; isolates from Vehicle control group", "result": 48}, {"measurement": "Bacterial burden, Mean", "setting": "[2]; cardiac vegetation", "result": 7.22, "unit": "log10 CFU/g"}, {"measurement": "Mean log10 CFU change v. 24 hr control", "setting": "[2]; cardiac vegetation", "result": "−0.68", "unit": "log10 CFU"}, {"measurement": "Mean log10 CFU change v. vehicle", "setting": "[2]; cardiac vegetation", "result": "−0.13", "unit": "log10 CFU"}, {"measurement": "Bacterial burden, Mean", "setting": "[2]; kidney tissue", "result": 4.64, "unit": "log10 CFU/g"}, {"measurement": "Mean log10 CFU change v. 24 hr control", "setting": "[2]; kidney tissue", "result": "−1.32", "unit": "log10 CFU"}, {"measurement": "Mean log10 CFU change v. vehicle", "setting": "[2]; kidney tissue", "result": "−0.55", "unit": "log10 CFU"}, {"measurement": "Bacterial burden, Mean", "setting": "[2]; lung tissue", "result": 3.75, "unit": "log10 CFU/g"}, {"measurement": "Mean log10 CFU change v. 24 hr control", "setting": "[2]; lung tissue", "result": "−1.41", "unit": "log10 CFU"}, {"measurement": "Mean log10 CFU change v. vehicle", "setting": "[2]; lung tissue", "result": "−1.25", "unit": "log10 CFU"}, {"measurement": "Bacterial burden, Mean", "setting": "[2]; spleen tissue", "result": 3.95, "unit": "log10 CFU/g"}, {"measurement": "Mean log10 CFU change v. 24 hr control", "setting": "[2]; spleen tissue", "result": "−1.00", "unit": "log10 CFU"}, {"measurement": "Mean log10 CFU change v. vehicle", "setting": "[2]; spleen tissue", "result": "−1.62", "unit": "log10 CFU"}, {"measurement": "MIC", "setting": "[3]; GN370, read-out: MIC against P. aeruginosa", "result": 16, "unit": "µg/mL"}, {"measurement": "MIC", "setting": "[3]; PA20, read-out: MIC of P. aeruginosa PA20", "result": 16, "unit": "µg/mL"}]}, {"molecule": "B1", "values": [{"measurement": "MIC in 25% CAA", "setting": "[4]", "result": "1 to 2", "unit": "µg/mL"}, {"measurement": "bactericidal activity (CFU decrease of 3-Log10, 3 hours after the addition of lysin)", "setting": "[5]; 10 μg/mL, enumerated lysins in CAA/HuS, general statement for HEPES and CAA/HuS", "result": "bactericidal activity"}, {"measurement": "HEPES (Log10 CFU/mL), 1 hr", "setting": "[5]; 25 mM HEPES pH 7.4, lysin 10 μg/ml, 1 hr, WC-453", "result": "<3.7", "unit": "Log10 CFU/mL"}, {"measurement": "HEPES (Log10 CFU/mL), 3 hr", "setting": "[5]; 25 mM HEPES pH 7.4, lysin 10 μg/ml, 3 hr, WC-453", "result": "<3.7", "unit": "Log10 CFU/mL"}, {"measurement": "CAA/HuS (Log10 CFU/mL), 1 hr", "setting": "[5]; CAA + 25% human serum, lysin 10 μg/ml, 1 hr, WC-453", "result": 7.6, "unit": "Log10 CFU/mL"}, {"measurement": "CAA/HuS (Log10 CFU/mL), 3 hr", "setting": "[5]; CAA + 25% human serum, lysin 10 μg/ml, 3 hr, WC-453", "result": "<3.7", "unit": "Log10 CFU/mL"}, {"measurement": "% RFU", "setting": "[6]; 5 minutes", "result": 370, "unit": "% RFU"}, {"measurement": "% RFU", "setting": "[6]; 10 minutes", "result": 500, "unit": "% RFU"}, {"measurement": "% RFU", "setting": "[6]; 20 minutes", "result": 528, "unit": "% RFU"}, {"measurement": "% RFU", "setting": "[6]; 40 minutes", "result": 530, "unit": "% RFU"}, {"measurement": "% RFU", "setting": "[6]; 60 minutes", "result": 565, "unit": "% RFU"}, {"measurement": "% RFU", "setting": "[6]; 100 minutes", "result": 557, "unit": "% RFU"}, {"measurement": "MIC in […] Survanta", "setting": "[7]", "result": 2, "unit": "µg/mL"}, {"measurement": "MIC in human serum ([…]) in CAA", "setting": "[7]", "result": 0.5, "unit": "µg/mL"}, {"measurement": "activity in human serum and pulmonary surfactant", "setting": "[7]", "result": "active in human serum and pulmonary surfactant"}, {"measurement": "25% CAA MIC", "setting": "[7]; media alone", "result": 1}]}]}
